From patent US8735411B2, “Macrocyclic benzofused pyrimidine derivatives” (AbbVie Inc., priority 2006, dated 2014)

The compounds below were run against histamine H4 receptor (Homo sapiens, UniProt Q9H3N8) (assay: In vitro histamine H4 potency in FLIPR (Ca2+ flux, HEK-293 cells coexpressing Gαqi5)). Settings: Kb for antagonists and inverse agonists, EC50 for partial agonists.
Format: cell-based
Parameters: expressed in transfected cells
Text: There are many methods available to show the effectiveness of compounds as histamine H4 receptor ligands. Histamine H4 receptors from mammalian species have been cloned. Methods to clone, express, and assess the potency and functional activity of such cloned genes are well known to those skilled in the art of molecular biology. […] Before testing, cells are loaded with a Ca^+2 sensitive fluorescent dye, in this case Fluo-4. In the case of partial agonist or agonist ligands, addition of compound to the cells leads to the increase in intracellular Ca^+2 which is detected by FLIPR (Fluorescence Imaging Plate Reader; Molecular Devices, Sunnyvale, Calif.) technology. […] The fluorescence intensities measured before addition of the test compound are subtracted from the fluorescence intensities at later time points. Peak response values determined at each concentration of ligand are expressed as a percentage of the response obtained with the full agonist histamine. Concentration versus response data are analyzed to obtain compound potency as Kb values for antagonists and inverse agonists and as EC50 values for partial agonists.

Chain of histamine H4 receptor (Q9H3N8 whole entry): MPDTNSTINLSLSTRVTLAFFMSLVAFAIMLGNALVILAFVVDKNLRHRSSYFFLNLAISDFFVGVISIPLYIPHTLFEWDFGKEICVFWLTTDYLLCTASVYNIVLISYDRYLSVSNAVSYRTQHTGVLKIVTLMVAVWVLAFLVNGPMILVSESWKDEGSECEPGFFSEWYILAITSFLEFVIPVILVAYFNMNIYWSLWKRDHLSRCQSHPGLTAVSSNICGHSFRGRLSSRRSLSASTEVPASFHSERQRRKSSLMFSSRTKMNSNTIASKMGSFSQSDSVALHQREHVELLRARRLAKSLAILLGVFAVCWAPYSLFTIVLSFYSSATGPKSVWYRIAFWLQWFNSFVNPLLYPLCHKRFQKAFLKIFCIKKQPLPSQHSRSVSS

Row | Compound | Potency [µM]
1 | Nc1nc2c(c(N3CCC4(CCNC4)CC3)n1)CCCc1ccccc1-2 [Example 60, 4-(2,8-diazaspiro[4.5]dec-8-yl)-6,7-dihydro-5H-benzo[6,7]cyclohepta[1,2-d]pyrimidin-2-amine] | 0.724
2 | Nc1nc(NCCC2CCN2)c2c(n1)-c1ccccc1CCC2 (stereo not drawn) [Example 63, N^4-(2-azetidin-2-ylethyl)-6,7-dihydro-5H-benzo[6,7]cyclohepta[1,2-d]pyrimidine-2,4-diamine] | 0.269
3 | Nc1nc2c(c(N3C[C@@H]4C[C@H]3CN4)n1)CCCCCc1ccccc1-2 [Example 28, 4-((1S,4S)-2,5-Diaza-bicyclo[2.2.1]hept-2-yl)-6,7,8,9-tetrahydro-5H-1,3-diaza-dibenzo[a,c]cyclononen-2-ylamine] | 15.849
4 | Nc1nc2c(c(N3CC[C@@H](N)C3)n1)CCCCCc1ccccc1-2 [Example 24, 4-((R)-3-Amino-pyrrolidin-1-yl)-6,7,8,9-tetrahydro-5H-1,3-diaza-dibenzo[a,c]cyclononen-2-ylamine] | 0.148
5 | CN1CC[C@H](Oc2nc(N)nc3c2CCCc2ccccc2-3)C1 [Example 71, 4-((S)-1-Methyl-pyrrolidin-3-yloxy)-6,7-dihydro-5H-benzo[6,7]cyclohepta[1,2-d]pyrimidin-2-ylamine] | 0.263
6 | Nc1nc(NC2CCCNC2)c2c(n1)-c1ccccc1CCC2 (stereo not drawn) [Example 121, N^4-piperidin-3-yl-6,7-dihydro-5H-benzo[6,7]cyclohepta[1,2-d]pyrimidine-2,4-diamine] | 0.407
7 | NCCCC(=O)Nc1nc2c(c(N3CCNCC3)n1)CCCc1ccccc1-2 [Example 91, 4-Amino-N-(4-piperazin-1-yl-6,7-dihydro-5H-benzo[6,7]cyclohepta[1,2-d]pyrimidin-2-yl)-butyramide] | 0.55
8 | c1cncc(CNc2nc3c(c(N4CC5CCCNC5C4)n2)CCCc2ccccc2-3)c1 (stereo not drawn) [Example 92, 6-(2-pyridin-3-ylmethylamino-6,7-dihydro-5H-benzo[6,7]cyclohepta[1,2-d]pyrimidin-4-yl)octahydro-1H-pyrrolo[3,4-b]pyridine] | 2.57
9 | Nc1nc2c(c(N3CCNCC3)n1)CCCc1cc3c(cc1-2)CCCC3 [Example 99, 4-Piperazin-1-yl-6,7,9,10,11,12-hexahydro-5H-1,3-diaza-benzo[3,4]cyclohepta[1,2b]naphthalen-2-ylamine] | 0.025
10 | Nc1nc2c(c(N3CCC4CC3CN4)n1)CCCc1ccccc1-2 (stereo not drawn) [Example 82, 4-(2,6-Diaza-bicyclo[3.2.1]oct-2-yl)-6,7-dihydro-5H-benzo[6,7]cyclohepta[1,2-d]pyrimidin-2-ylamine] | 2.042
11 | CN1CCN(c2nc(N)nc3c2OCc2ccccc2-3)CC1 [Example 41, 1-(4-Methyl-piperazin-1-yl)-9H-10-oxa-2,4-diaza-phenanthren-3-ylamine] | 0.05
12 | [1-(6,7-Dihydro-5H-benzo[6,7]cyclohepta[1,2-d]pyrimidin-4-yl)-azetidin-3-yl]-amine [Example 125] | 0.631
13 | CN1CC2CC(C1)N(c1nc(N)nc3c1CCCc1ccccc1-3)C2 (stereo not drawn) [Example 86, 4-(3-Methyl-3,6-diaza-bicyclo[3.2.1]oct-6-yl)-6,7-dihydro-5H-benzo[6,7]cyclohepta[1,2-d]pyrimidin-2-ylamine] | 0.891
14 | COC(=O)N(C)c1ccc2c(c1)-c1nc(N)nc(N3CC4CCCNC4C3)c1CCC2 (stereo not drawn) [Example 130, (2-Amino-4-octahydro-pyrrolo[3,4-b]pyridin-6-yl-6,7-dihydro-5H-benzo[6,7]cyclohepta[1,2-d]pyrimidin-10-yl)-methyl-carbamic acid methyl ester] | 0.164
15 | CNC1CN(c2nc(N)nc3c2CCSc2ccccc2-3)C1 [Example 33, 4-(3-Methylamino-azetidin-1-yl)-5,6-dihydro-7-thia-1,3-diaza-dibenzo[a,c]cyclohepten-2-ylamine] | 0.013
16 | Nc1nc2c(c(N3CC[C@@H]4CNC[C@@H]43)n1)CCCc1ccccc1-2 [Example 19, 4-((3aR,6aR)-Hexahydro-pyrrolo[3,4-b]pyrrol-1-yl)-6,7-dihydro-5H-benzo[6,7]cyclohepta[1,2-d]pyrimidin-2-ylamine] | 0.603
17 | CNCC(=O)Nc1nc2c(c(N3CCNCC3)n1)CCCc1ccccc1-2 [Example 88, 2-Methylamino-N-(4-piperazin-1-yl-6,7-dihydro-5H-benzo[6,7]cyclohepta[1,2-d]pyrimidin-2-yl)-acetamide] | 0.209
18 | CNC1CN(c2nc(N)nc3c2CCCCCc2ccccc2-3)C1 [Example 26, 4-(3-Methylamino-azetidin-1-yl)-6,7,8,9-tetrahydro-5H-1,3-diaza-dibenzo[a,c]cyclononen-2-ylamine] | 0.115

Row | Compound | Potency [µM]
19 | NCCC(=O)Nc1nc2c(c(N3CCNCC3)n1)CCCc1ccccc1-2 [Example 93, 3-Amino-N-(4-piperazin-1-yl-6,7-dihydro-5H-benzo[6,7]cyclohepta[1,2-d]pyrimidin-2-yl)-propionamide] | 0.135
20 | CN1CCN(c2nc(N)nc3c2CCOc2ccccc2-3)CC1 [Example 29, 4-(4-Methyl-piperazin-1-yl)-5,6-dihydro-7-oxa-1,3-diaza-dibenzo[a,c]cyclohepten-2-ylamine] | 0.039
21 | Nc1nc2c(c(N3CCN4CCCC4C3)n1)CCCc1ccccc1-2 (stereo not drawn) [Example 80, 4-(Octahydro-pyrrolo[1,2-a]pyrazin-2-yl)-6,7-dihydro-5H-benzo[6,7]cyclohepta[1,2-d]pyrimidin-2-ylamine] | 0.178
22 | c1ccc2c(c1)CCCc1c-2nc(N2CCNCC2)nc1N1CCNCC1 [Example 103, 2,4-Di-piperazin-1-yl-6,7-dihydro-5H-benzo[6,7]cyclohepta[1,2-d]pyrimidine] | 0.351
23 | O=C(Nc1nc2c(c(N3CCNCC3)n1)CCCc1ccccc1-2)c1ccccc1 [Example 84, N-(4-Piperazin-1-yl-6,7-dihydro-5H-benzo[6,7]cyclohepta[1,2-d]pyrimidin-2-yl)-benzamide] | 3.388
24 | CN[C@@H]1CCN(c2nc(N)nc3c2CCSc2ccccc2-3)C1 [Example 34, 4-(3-(R)-Methylamino-pyrrolidin-1-yl)-5,6-dihydro-7-thia-1,3-diaza-dibenzo[a,c]cyclohepten-2-ylamine] | 0.0042
25 | Nc1nc2c(c(N3CC[C@@H](N)C3)n1)CCCCc1ccccc1-2 [Example 55, 4-[(3R)-3-aminopyrrolidin-1-yl]-5,6,7,8-tetrahydrobenzo[7,8]cycloocta[1,2-d]pyrimidin-2-amine] | 0.123
26 | Nc1nc2c(c(N3CC4CCCNC4C3)n1)CCOc1cc(-c3cccnc3)ccc1-2 (stereo not drawn) [Example 106, 4-Octahydro-pyrrolo[3,4-b]pyridin-6-yl-9-pyridin-3-yl-5,6-dihydro-7-oxa-1,3-diaza-dibenzo[a,c]cyclohepten-2-ylamine] | 0.14
27 | Nc1nc2c(c(N3CCNCCNCC3)n1)CCCc1ccccc1-2 [Example 94, 4-[1,4,7]Triazonan-1-yl-6,7-dihydro-5H-benzo[6,7]cyclohepta[1,2-d]pyrimidin-2-ylamine] | 0.0091
28 | c1ccc2c(c1)CCCc1c-2nc(NCCc2c[nH]cn2)nc1N1CC2CCCNC2C1 (stereo not drawn) [Example 127, 6-(2-(1H-imidazol-4-yl)ethylamino-6,7-dihydro-5H-benzo[6,7]cyclohepta[1,2-d]pyrimidin-4-yl)octahydro-1H-pyrrolo[3,4-b]pyridine] | 0.933
29 | CN1CCC(Oc2nc(N)nc3c2CCCc2ccccc2-3)CC1 [Example 68, 4-(1-Methyl-piperidin-4-yloxy)-6,7-dihydro-5H-benzo[6,7]cyclohepta[1,2-d]pyrimidin-2-ylamine] | 0.015
30 | Nc1nc2c(c(N3CCNCC3)n1)SCCc1ccccc1-2 [Example 109, 4-Piperazin-1-yl-6,7-dihydro-5-thia-1,3-diaza-dibenzo[a,c]cyclohepten-2-ylamine] | 0.087
31 | CN(C)CC(=O)Nc1nc2c(c(N3CCNCC3)n1)CCCc1ccccc1-2 [Example 87, 2-Dimethylamino-N-(4-piperazin-1-yl-6,7-dihydro-5H-benzo[6,7]cyclohepta[1,2-d]pyrimidin-2-yl)-acetamide] | 0.174
32 | Cc1cc(C)c2c(c1)-c1nc(N)nc(N3CCNCC3)c1CCC2 [Example 126, 8,10-Dimethyl-4-piperazin-1-yl-6,7-dihydro-5H-benzo[6,7]cyclohepta[1,2-d]pyrimidin-2-ylamine] | 2.754
33 | Nc1nc2c(c(N3CC4CCCNC4C3)n1)CCCc1ccccc1-2 (stereo not drawn) [Example 59, 4-octahydro-6H-pyrrolo[3,4-b]pyridin-6-yl-6,7-dihydro-5H-benzo[6,7]cyclohepta[1,2-d]pyrimidin-2-amine] | 0.044
34 | CN1CCC(Nc2nc(N)nc3c2CCCc2ccccc2-3)CC1 [Example 65, N^4-(1-methylpiperidin-4-yl)-6,7-dihydro-5H-benzo[6,7]cyclohepta[1,2-d]pyrimidine-2,4-diamine] | 0.013
35 | CNc1ccc2c(c1)-c1nc(N)nc(N3CCNCC3)c1CCC2 [Example 129, 10-N-Methyl-4-piperazin-1-yl-6,7-dihydro-5H-benzo[6,7]cyclohepta[1,2-d]pyrimidine-2,10-diamine] | 1.096
36 | CC1CCN(c2nc(N)nc3c2CCCc2ccccc2-3)CCN1 (stereo not drawn) [Example 67, 4-(5-methyl-1,4-diazepan-1-yl)-6,7-dihydro-5H-benzo[6,7]cyclohepta[1,2-d]pyrimidin-2-amine] | 0.069
